PubChem BioAssay AID1918932 (Molecular Pharmacology Branch, DTP, NCI, 2023)

Test system: 171881-019-R-J1-PDC complex spheroid viability
Experiment: Anticancer human tumor 171881-019-R-J1-PDC patient-derived invasive breast carcinoma cell line growth inhibition
Details: for IC50: curve of first compound; for viability, T/C: stronger effect = lower value
From the text: Multicellular complex tumor spheroid response to LSD1 Inhibitor Iadademstat in combination with a variety of drugs and investigational agents in selected tumor cell lines
The current study was undertaken to assess response to LSD1 inhibitors in combination with standard-of-care drugs and investigational agents in solid tumor complex spheroid models as well as in the K-562 leukemia. Complex spheroids include a stromal component modeled by human endothelial cells (HUVEC) and fibroblasts modeled by human mesenchymal stem cells (MSCs). The concentration ranges selected for each drug and investigational agent were based upon clinically achievable concentrations if the clinical Cmax of the agent was known.
Compounds. The drugs and investigational agents used in this study are listed on Table 1. All of the agents used, including staurosporine (NSC755774) and gemcitabine (NSC613327), were obtained from the Developmental Therapeutics Program, NCI. FDA-approved anticancer drugs are available from the NCI at http://dtp.nci.nih.gov/branches/dscb/oncology_drugset_explanation.html. Drugs and investigational agents were >95% pure by proton nuclear magnetic resonance (NMR) and liquid chromatography/mass spectrometry (LC/MS). Stock solutions were prepared at 400x in DMSO, stored at -70 degrees C, and diluted in fresh medium prior to their use. The final concentration of DMSO in cell culture wells never exceeded 0.25% (v/v). The FDA-approved anticancer drug set is available from the Developmental Therapeutics Program at https://dtp.cancer.gov/organization/dscb/obtaining/available_plates.htm. All drugs and investigational agents were tested over a range starting from a high concentration at or near the clinical Cmax and decreasing in half-log increments. If the clinical Cmax for an agent had not been determined, the highest concentration tested was 10 microM.
Cell Lines. The patient-derived cancer cell (PDC) lines: 292921-168-R-J2-PDC, K24384-001-R-PDC, and 521955-158-R2-J5-PDC pancreatic carcinomas, 556581-035-R-J1 ovarian carcinoma, 324938-238-R-J1-PDC, 855422-203-R-J1-PDC and 883617-216-R-J1-PDC urothelial bladder carcinomas, 743489-274-T-PDC renal cell carcinoma, 138582-R-J1 Merkel cell tumor, K60290-347-R-J1 and K57222-313-R-J1-PDC glioblastomas, 653999-131-R-J2-PDC, LG0703-F948-PDC, and 349418-098-R-PDC non-small cell lung carcinomas, 885512-296-R-J2-PDC, 171881-019-R-J1-PDC breast carcinomas and 186277-243-T-J2-PDC and 233499-124-R-J2-PDC colon carcinomas were obtained from the NCI Patient-Derived Models Repository (PDMR, https://pdmr.cancer.gov). The established cell lines NCI/ADR-RES (RRID:CVCL_14520 and OVCAR-5 (RRID:CVCL_1628) ovarian carcinomas, 786-O (RRID:CVCL_1051) and A498 (RRID:CVCL_A498) renal cell carcinoma, NCI-H211 (ATCC, cat. CRL-5824; RRID:CVCL_1529), NCI-H196 (ATCC, cat. CRL-5823, RRID:CVCL_1509), SW 1271 (ATCC, cat. CRL-2177, RRID:CVCL_1716) and NCI-H1876 (ATCC, cat. CRL-5902, RRID:CVCL_1503) small cell lung carcinomas, MDA-MB-231 (RRID:CVCL_0062) and MDA-MB-468 (RRID:CVCL_0419)breast carcinomas (10-12). Pooled donor human umbilical vein endothelial cells (HUVEC, Lonza, cat. CC-2519) and human mesenchymal stem cells (hMSC, Lonza, cat. PT-2501) were purchased from Lonza (Walkersville, MD).
Cell Culture. All cells were maintained in an incubator at 37 degrees C and 5% CO2 with 95% humidity. The PDC lines were cultured according to standard operating procedures established by the NCI PDMR (https://pdmr.cancer.gov). Briefly all PDCs were thawed and cultured in Matrigel-coated flasks prepared with a working solution of 1X Ham's F-12 nutrient mix, without supplementation (Invitrogen, Waltham, MA, cat. 11765054), 100 U/mL penicillin-streptomycin (Invitrogen, cat. 15140122), and 2.5% Matrigel (Corning Inc., Corning, NY, cat. 354248) for the first three passages. […]
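Also: spheroids exposed to agents for 7 days after 3 days growth.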

SMILES: CCN(c1cc(-c2ccc(CN3CCOCC3)cc2)cc(C(=O)NCc2c(C)cc(C)[nH]c2=O)c1C)C1CCOCC1 + NC1CCC(NC2CC2c2ccccc2)CC1
- IC50 (second compound 0.1 µM): 2670 nM
- IC50 (second compound 0.316 µM): 2850 nM
- IC50 (second compound 1 µM): 2680 nM
- IC50 (second compound 3.16 µM): 2730 nM
- IC50 (second compound 10 µM): 2880 nM
- viability, T/C (second compound 0.1 µM, first compound 0.00949 µM): 76.3%
- viability, T/C (second compound 0.1 µM, first compound 0.03 µM): 85%
- viability, T/C (second compound 0.1 µM, first compound 0.0949 µM): 81.3%
- viability, T/C (second compound 0.1 µM, first compound 0.3 µM): 101%
- viability, T/C (second compound 0.1 µM, first compound 0.949 µM): 74.1%
- viability, T/C (second compound 0.1 µM, first compound 3 µM): 47.3%
- viability, T/C (second compound 0.316 µM, first compound 0.00949 µM): 84.7%
- viability, T/C (second compound 0.316 µM, first compound 0.03 µM): 78.2%
- viability, T/C (second compound 0.316 µM, first compound 0.0949 µM): 72.6%
- viability, T/C (second compound 0.316 µM, first compound 0.3 µM): 94.3%
- viability, T/C (second compound 0.316 µM, first compound 0.949 µM): 76.6%
- viability, T/C (second compound 0.316 µM, first compound 3 µM): 48.8%
- viability, T/C (second compound 1 µM, first compound 0.00949 µM): 69.2%
- viability, T/C (second compound 1 µM, first compound 0.03 µM): 77.3%
- viability, T/C (second compound 1 µM, first compound 0.0949 µM): 73.6%
- viability, T/C (second compound 1 µM, first compound 0.3 µM): 88.7%
- viability, T/C (second compound 1 µM, first compound 0.949 µM): 79.9%
- viability, T/C (second compound 1 µM, first compound 3 µM): 47%
- viability, T/C (second compound 3.16 µM, first compound 0.00949 µM): 80.6%
- viability, T/C (second compound 3.16 µM, first compound 0.03 µM): 81.7%
- viability, T/C (second compound 3.16 µM, first compound 0.0949 µM): 84.9%
- viability, T/C (second compound 3.16 µM, first compound 0.3 µM): 81.8%
- viability, T/C (second compound 3.16 µM, first compound 0.949 µM): 70.3%
- viability, T/C (second compound 3.16 µM, first compound 3 µM): 48.3%
- viability, T/C (second compound 10 µM, first compound 0.00949 µM): 80.4%
- viability, T/C (second compound 10 µM, first compound 0.03 µM): 75.1%
- viability, T/C (second compound 10 µM, first compound 0.0949 µM): 76.5%
- viability, T/C (second compound 10 µM, first compound 0.3 µM): 90.7%
- viability, T/C (second compound 10 µM, first compound 0.949 µM): 77.9%
- viability, T/C (second compound 10 µM, first compound 3 µM): 49%
